Measured values from US7855290B2, “Pyridine derivatives and pyrimidine derivatives (3)” (Eisai R&D Management Co., Ltd., priority 2005, dated 2010).

Target: T1, His6-HGFR (HGFR cytoplasmic domain) (Homo sapiens, UniProt P08581)
T1 construct: made in house; host or cells: Sf9 insect cells (Spodoptera frugiperda), baculovirus, pFastBac-HT vector
Assay: Inhibitory activity against HGFR tyrosine kinase activity (HTRF)
Type: biochemical
Conditions: biotin-poly(GT), ATP, 30° C. 10 min
How it was run: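 Sf9-expressed, Ni-NTA-purified N-terminal His6-tagged HGFR cytoplasmic domain (from Lys974), 30 ng, phosphorylates 250 ng biotin-poly(GT) in Hepes pH 7.4 with MgCl2, MnCl2 and Na3VO4. Reaction started with 4 μM ATP stock, run 10 min at 30° C, stopped with EDTA. Phosphotyrosine is detected by HTRF.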

T1 sequence (P08581 956-1390 limits assumed): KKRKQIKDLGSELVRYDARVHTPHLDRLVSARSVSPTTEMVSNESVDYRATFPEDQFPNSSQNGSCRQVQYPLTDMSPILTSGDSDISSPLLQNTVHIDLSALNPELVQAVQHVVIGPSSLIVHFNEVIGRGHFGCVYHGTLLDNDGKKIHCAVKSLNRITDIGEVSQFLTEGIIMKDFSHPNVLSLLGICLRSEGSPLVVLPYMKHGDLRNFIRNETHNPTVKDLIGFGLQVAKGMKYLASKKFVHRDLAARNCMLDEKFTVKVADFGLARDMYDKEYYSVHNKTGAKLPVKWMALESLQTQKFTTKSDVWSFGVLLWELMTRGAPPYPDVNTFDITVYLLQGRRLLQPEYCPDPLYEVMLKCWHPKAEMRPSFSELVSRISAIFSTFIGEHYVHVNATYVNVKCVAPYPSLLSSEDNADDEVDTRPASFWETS

Row | SMILES | IC50
1 | O=C(Nc1cc(Oc2cc(F)c(NC(=O)C3(C(=O)Nc4ccc(F)cc4)CC3)cc2F)ccn1)N1CC(CN2CCC2)C1 [Example 95, N-{4-[(2-{[3-(Azetidin-1-ylmethyl)azetidin-1-ylcarbonyl]amino}pyridin-4-yl)oxy]-2,5-difluorophenyl}-N′-(4-fluorophenyl)cyclopropane-1,1-dicarboxamide] | 50 nM
2 | O=C(Nc1cc(Oc2ccc(NC(=O)C3(C(=O)Nc4ccc(F)cc4)CC3)cc2F)ccn1)N1CCC(CO)CC1 [Example 85, N-(3-Fluoro-4-{[2-({[-4-(hydroxymethyl)piperidin-1-yl]carbonyl}amino)pyridin-4-yl]oxy}phenyl)-N′-(4-fluorophenyl)cyclopropane-1,1-dicarboxamide] | 15 nM
3 | CN(C)CC1CN(C(=O)Nc2cc(Oc3cc(F)c(NC(=O)C4(C(=O)Nc5ccc(F)cc5)CC4)cc3F)ncn2)C1 [Example 98, N-[4-({4-[({3-[(Dimethylamino)methyl]azetidin-1-yl}carbonyl)amino]pyrimidin-6-yl}oxy)-2,5-difluorophenyl]-N′-(4-fluorophenyl)cyclopropane-1,1-dicarboxamide] | 67 nM
4 | O=C(Nc1cc(Oc2ccc(NC(=O)C3(C(=O)Nc4ccc(F)cc4)CC3)cc2F)ccn1)N1CC[C@H](O)C1 [Example 88, N-(3-Fluoro-4-{[2-({[(3S)-3-hydroxypyrrolidin-1-yl]carbonyl}amino)pyridin-4-yl]oxy}phenyl)-N′-(4-fluorophenyl)cyclopropane-1,1-dicarboxamide] | 16 nM
5 | CN1CCN(C2CCN(C(=O)Nc3cc(Oc4cc(F)c(NC(=O)C5(C(=O)Nc6ccc(F)cc6)CC5)cc4F)ccn3)CC2)CC1 [Example 92, N-(2,5-Difluoro-4-{[2-({[4-(4-methylpiperazin-1-yl)piperidin-1-yl]carbonyl}amino)pyridin-4-yl]oxy}phenyl)-N′-(4-fluorophenyl)cyclopropane-1,1-dicarboxamide] | 47 nM
6 | O=C(Nc1cc(Oc2ccc(NC(=O)C3(C(=O)Nc4ccc(F)cc4)CC3)cc2F)ccn1)N1CC(CO)C1 [Example 81, N-(3-Fluoro-4-{[2-({[3-(hydroxymethyl)azetidin-1-yl]carbonyl}amino)pyridin-4-yl]oxy}phenyl)-N′-(4-fluorophenyl)cyclopropane-1,1-dicarboxamide] | 19 nM
7 | CN(C)CC1CCN(C(=O)Nc2cc(Oc3ccc(NC(=O)C4(C(=O)Nc5ccc(F)cc5)CC4)cc3F)ccn2)CC1 [Example 5, N-[4-({2-[({4-[(Dimethylamino)methyl]piperidin-1-yl}carbonyl)amino]pyridin-4-yl}oxy)-3-fluorophenyl]-N′-(4-fluorophenyl)cyclopropane-1,1-dicarboxamide] | 60 nM
8 | O=C(Nc1cc(Oc2cc(F)c(NC(=O)C3(C(=O)Nc4ccc(F)cc4)CC3)cc2F)ccn1)N1CC(CO)C1 [Example 96, N-(2,5-Difluoro-4-{[2-({[3-(hydroxymethyl)azetidin-1-yl]carbonyl}amino)pyridin-4-yl]oxy}phenyl)-N′-(4-fluorophenyl)cyclopropane-1,1-dicarboxamide] | 17 nM
9 | O=C(Nc1cc(Oc2ccc(NC(=O)C3(C(=O)Nc4ccc(F)cc4)CC3)c(F)c2)ccn1)N1CCC(O)CC1 [Example 82, N-[2-Fluoro-4-[(2-{[(4-hydroxypiperidin-1-yl)carbonyl]amino}pyridin-4-yl)oxy]phenyl}-N′-(4-fluorophenyl)cyclopropane-1,1-dicarboxamide] | 16 nM
10 | CN(C)CC1CN(C(=O)Nc2cc(Oc3cc(F)c(NC(=O)C4(C(=O)Nc5ccc(F)cc5)CC4)cc3F)ccn2)C1 [Example 93, N-[2,5-Difluoro-4-({2-[({3-[(dimethylamino)methyl]azetidin-1-yl]carbonyl)amino]pyridin-4-yl}oxy)phenyl]-N′-(4-fluorophenyl)cyclopropane-1,1-dicarboxamide] | 42 nM
11 | O=C(Nc1cc(Oc2ccc(NC(=O)C3(C(=O)Nc4ccc(F)cc4)CC3)c(F)c2)ccn1)N1CCC(CO)CC1 [Example 83, N-(2-Fluoro-4-{[2-({[4-(hydroxymethyl)piperidin-1-yl]carbonyl}amino)pyridin-4-yl]oxy}phenyl)-N′-(4-fluorophenyl)cyclopropane-1,1-dicarboxamide] | 17 nM
12 | O=C(Nc1cc(Oc2cc(F)c(NC(=O)C3(C(=O)Nc4ccc(F)cc4)CC3)cc2F)ncn1)N1CC(O)C1 [Example 97, N-{2,5-Difluoro-4-[(4-{[(3-hydroxyazetidin-1-yl)carbonyl]amino}pyrimidin-6-yl)oxy]phenyl}-N′-(4-fluorophenyl)cyclopropane-1,1-dicarboxamide] | 21 nM

Compounds with a lower IC50, results first:

Row | IC50 | SMILES
13 | 9 nM | O=C(Nc1cc(Oc2ccc(NC(=O)C3(C(=O)Nc4ccc(F)cc4)CC3)cc2F)ccn1)N1CCC(O)CC1 [Example 84, N-[3-Fluoro-4-[(2-{[(4-hydroxypiperidin-1-yl)carbonyl]amino}pyridin-4-yl)oxy]phenyl}-N′-(4-fluorophenyl)cyclopropane-1,1-dicarboxamide]
14 | 13 nM | O=C(Nc1cc(Oc2ccc(NC(=O)C3(C(=O)Nc4ccc(F)cc4)CC3)c(F)c2)ccn1)N1CC[C@H](O)C1 [Example 89, N-(2-Fluoro-4-{[2-({[(3S)-3-hydroxypyrrolidin-1-yl]carbonyl}amino)pyridin-4-yl]oxy}phenyl)-N′-(4-fluorophenyl)cyclopropane-1,1-dicarboxamide]
15 | 12 nM | O=C(Nc1cc(Oc2cc(F)c(NC(=O)C3(C(=O)Nc4ccc(F)cc4)CC3)cc2F)ccn1)N1CCC1 [Example 90, N-[4-({2-[(Azetidin-1-ylcarbonyl)amino]pyridin-4-yl}oxy)-2,5-difluorophenyl]-N′-(4-fluorophenyl)cyclopropane-1,1-dicarboxamide]
16 | 12 nM | O=C(Nc1cc(Oc2ccc(NC(=O)C3(C(=O)Nc4ccc(F)cc4)CC3)cc2F)ccn1)N1CC[C@@H](O)C1 [Example 86, N-(3-Fluoro-4-{[2-({[(3R)-3-hydroxypyrrolidin-1-yl]carbonyl}amino)pyridin-4-yl]oxy}phenyl)-N′-(4-fluorophenyl)cyclopropane-1,1-dicarboxamide]
17 | 9 nM | O=C(Nc1cc(Oc2ccc(NC(=O)C3(C(=O)Nc4ccc(F)cc4)CC3)c(F)c2)ccn1)N1CC[C@@H](O)C1 [Example 87, N-(2-Fluoro-4-{[2-({[(3R)-3-hydroxypyrrolidin-1-yl]carbonyl}amino)pyridin-4-yl]oxy}phenyl)-N′-(4-fluorophenyl)cyclopropane-1,1-dicarboxamide]
